pIC50: −log10 of the molar value. Where two headings read alike, the source gives them in different places.
Legend:
Fyn = Fyn (Homo sapiens (Human), UniProt P06241); experiment: Z′-LYTE in vitro Fyn kinase activity assay; type: biochemical; conditions: ATP 50 μM; read-out: FYN KINASE INHIBITION IC50
In short: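 Z′-LYTE FRET format with full-length active Fyn in 50 mM Hepes pH 7.5, 10 mM MgCl2, 1 mM EGTA, 0.01% Brij-35, 1% DMSO final; 60 minutes at 25° C. Percent phosphorylation from 0% and 100% phosphorylation controls; IC50 by non-linear curve fitting of percent inhibition.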

VEGFR2 = VEGFR2 (Homo sapiens (Human), UniProt P35968); experiment: In vitro VEGFR2 kinase activity assay (Eurofins Cerep); type: biochemical; conditions: read-out: VEGFR2 KINASE INHIBITION IC50
In short: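 Contract biochemical kinase assay on human VEGFR2 with inhibitors at 10^−8 to 10^−5 M final (some re-tested from 10^−9 M). Activity expressed as percent of no-compound control; IC50 by non-linear regression of mean replicate inhibition curves.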

NF-kB = experiment: Gene reporter (GR) assay, NF-kB activation after TNFα in JB6 Cl 41-5a (P+) cells; type: cell-based, murine; conditions: TNFα 2 ng/ml, non toxic concentrations, read-out: Gene reporter (GR) inhibition IC50
In short: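 TNFα (2 ng/ml, 4 h) stimulation followed 1 h compound pre-treatment in NF-kB-luciferase-transfected mouse JB6 (P+) epithelial cells. Reporter luminescence and cell viability were read together, each condition in quadruplicate.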

IL-1β = experiment: Gene expression in rat articular chondrocytes under IL-1β stimulation, IL-1β; type: cell-based; conditions: for IL-1β gene expression, percentage of inhibitory effect at the highest non toxic concentration: 6 h
In short: (§1)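 Primary rat chondrocytes were synchronized in DMEM GlutaMAX I 0.4% 10 days after plating, then co-treated with test compounds (top concentration set by toxicity) and cytokine at 2 ng/ml. TaqMan RT-qPCR relative to 18S was read at 6 h for IL-1β and ADAMTS-5 and at 24 h for MMP3 and MMP13.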

IL-6 = experiment: Gene expression in rat articular chondrocytes under IL-1β stimulation, IL-6; type: cell-based; conditions: for IL-6 gene expression, percentage of inhibitory effect at the highest non toxic concentration: 6 h
COX2 = experiment: Gene expression in rat articular chondrocytes under IL-1β stimulation, COX2; type: cell-based; parameters: key to COX2 gene expression, no effect: ne: no effect; conditions: 24 h
ADAMTS-5 = experiment: Gene expression in rat articular chondrocytes under IL-1β stimulation, ADAMTS-5; type: cell-based; conditions: for ADAMTS-5 gene expression, percentage of inhibitory effect at the highest non toxic concentration: 6 h
In short: as §1

MMP3 = experiment: Gene expression in rat articular chondrocytes under IL-1β stimulation, MMP3; type: cell-based; parameters: key to MMP3 gene expression, no effect: ne: no effect
In short: as §1

MMP13 = experiment: Gene expression in rat articular chondrocytes under IL-1β stimulation, MMP13; type: cell-based; parameters: key to MMP13 gene expression, no effect: ne: no effect; conditions: 24 h
In short: as §1

[1] = tested on: bovine nasal septum cartilage; experiment: Inhibition of cartilage degradation (GAG release) induced by IL-1α in a bovine in vitro model; type: cell-based; parameters: key to Bovine cartilage degradation induced by IL-1α, no effect: ne: no effect
In short: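 Cartilage punches (2 mm) from an 8-month-old male bovine nasal septum were cultured 48 h, then stimulated 48 h with IL-1α […] ± compound in DMEM + 0.1% BSA. Compound doses were set from 48 h rat chondrocyte toxicity. GAG in medium and papain-digested tissue was measured by DMB absorbance at 590 nm; degradation = medium GAG/total GAG × 100.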

[2] = tested on: rat primary articular chondrocytes
Protocol: (§2) Purified chondrocytes were resuspended in DMEM glutaMAX 10% and plated in a 96X well plate for toxicity analysis and in a 6X well plate for gene expression analysis.
(§3) For toxicity analysis cells were then treated with the different compounds for 24 and 48 h. At the end of the incubation time, the medium was removed and was substituted with a mixture 10:1 of DMEM glutaMAX 10%—MTT (2 mg/ml) for 1 h at 37° C. in the cell incubator. After this incubation, the precipitated salt was dissolved with 100 μl of DMSO and the plate was read at 540 nm. The toxicity analysis were performed to decide the maximal non toxic concentration of each compound used in the gene expression assay.

[3] = tested on: rat primary articular chondrocytes; experiment: Toxicity analysis (MTT) in rat primary chondrocytes; conditions: for First toxic concentration at 24 h: rat primary chondrocytes
Protocol: as §2, §3

[4] = Rattus norvegicus, Chondrocyte, 6 h incubation
[5] = Bos taurus, read-out: Bovine cartilage degradation induced by IL-1α, % inhibitory effect at max concentration

VEGFR2, sequence (P35968 20-1356): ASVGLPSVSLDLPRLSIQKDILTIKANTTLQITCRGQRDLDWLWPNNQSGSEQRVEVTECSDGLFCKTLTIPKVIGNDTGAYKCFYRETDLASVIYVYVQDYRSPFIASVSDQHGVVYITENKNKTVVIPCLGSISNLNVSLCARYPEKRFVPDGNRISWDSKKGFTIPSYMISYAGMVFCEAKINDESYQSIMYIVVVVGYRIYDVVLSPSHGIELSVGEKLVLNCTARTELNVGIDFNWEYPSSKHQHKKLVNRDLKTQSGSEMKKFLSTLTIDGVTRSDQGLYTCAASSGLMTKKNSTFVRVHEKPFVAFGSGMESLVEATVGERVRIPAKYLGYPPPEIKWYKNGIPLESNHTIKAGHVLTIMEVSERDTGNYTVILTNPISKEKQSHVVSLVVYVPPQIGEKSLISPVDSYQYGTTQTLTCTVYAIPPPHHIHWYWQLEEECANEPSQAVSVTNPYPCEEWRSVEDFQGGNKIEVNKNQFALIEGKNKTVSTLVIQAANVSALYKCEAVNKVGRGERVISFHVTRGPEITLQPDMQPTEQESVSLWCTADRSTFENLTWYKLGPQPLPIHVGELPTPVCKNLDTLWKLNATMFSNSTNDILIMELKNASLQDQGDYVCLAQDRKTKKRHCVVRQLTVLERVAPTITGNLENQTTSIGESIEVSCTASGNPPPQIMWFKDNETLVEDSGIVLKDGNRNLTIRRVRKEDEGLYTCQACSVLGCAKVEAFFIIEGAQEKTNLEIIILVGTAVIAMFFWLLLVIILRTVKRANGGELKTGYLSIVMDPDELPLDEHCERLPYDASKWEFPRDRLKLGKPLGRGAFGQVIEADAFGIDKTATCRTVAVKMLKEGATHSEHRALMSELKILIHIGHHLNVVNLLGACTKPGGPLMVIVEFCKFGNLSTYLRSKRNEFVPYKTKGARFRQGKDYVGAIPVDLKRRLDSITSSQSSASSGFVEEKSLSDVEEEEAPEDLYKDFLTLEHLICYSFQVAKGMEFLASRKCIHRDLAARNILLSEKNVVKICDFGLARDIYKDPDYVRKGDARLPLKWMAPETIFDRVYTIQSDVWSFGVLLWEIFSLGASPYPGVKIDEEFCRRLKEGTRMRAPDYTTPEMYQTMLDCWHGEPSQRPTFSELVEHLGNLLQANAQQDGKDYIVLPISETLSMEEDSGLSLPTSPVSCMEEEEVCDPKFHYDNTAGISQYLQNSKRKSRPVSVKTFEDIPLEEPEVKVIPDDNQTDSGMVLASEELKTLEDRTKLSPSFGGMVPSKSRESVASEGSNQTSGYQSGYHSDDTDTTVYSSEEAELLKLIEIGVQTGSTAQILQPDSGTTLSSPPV
Fyn, sequence (P06241 whole entry): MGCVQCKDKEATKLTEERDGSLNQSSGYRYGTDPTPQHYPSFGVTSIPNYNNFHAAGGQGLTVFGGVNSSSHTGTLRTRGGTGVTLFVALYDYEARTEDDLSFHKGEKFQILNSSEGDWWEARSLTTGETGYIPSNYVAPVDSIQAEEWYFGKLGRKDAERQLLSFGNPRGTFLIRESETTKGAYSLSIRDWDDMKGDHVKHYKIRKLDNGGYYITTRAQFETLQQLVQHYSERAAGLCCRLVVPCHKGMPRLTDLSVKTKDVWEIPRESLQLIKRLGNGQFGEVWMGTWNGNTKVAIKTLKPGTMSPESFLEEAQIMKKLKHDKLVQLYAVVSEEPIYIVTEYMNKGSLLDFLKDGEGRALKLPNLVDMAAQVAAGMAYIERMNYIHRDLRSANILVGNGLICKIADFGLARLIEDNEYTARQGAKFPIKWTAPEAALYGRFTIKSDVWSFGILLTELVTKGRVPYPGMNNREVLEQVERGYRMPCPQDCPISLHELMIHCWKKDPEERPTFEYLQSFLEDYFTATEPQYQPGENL

Structure (SMILES)	pIC50 (Fyn)	pIC50 (VEGFR2)	IL-1β gene expression, percentage of inhibitory effect at the highest non toxic concentration (IL-1β; 3 μM)	IL-6 gene expression, percentage of inhibitory effect at the highest non toxic concentration (IL-6; 3 μM)	COX2 gene expression, percentage of inhibitory effect at the highest non toxic concentration (COX2; 3 μM)	ADAMTS-5 gene expression, percentage of inhibitory effect at the highest non toxic concentration (ADAMTS-5; 3 μM)	MMP3 gene expression, percentage of inhibitory effect at the highest non toxic concentration (MMP3; 3 μM, 24 h)	MMP13 gene expression, percentage of inhibitory effect at the highest non toxic concentration (MMP13; 3 μM)	pIC50 (NF-kB; Mus musculus, JB6 Cl 41-5a)	IL-1β gene expression, percentage of inhibitory effect at the highest non toxic concentration (IL-1β; 10 μM)	IL-6 gene expression, percentage of inhibitory effect at the highest non toxic concentration (IL-6; 10 μM)	COX2 gene expression, percentage of inhibitory effect at the highest non toxic concentration (COX2; 10 μM)	MMP13 gene expression, percentage of inhibitory effect at the highest non toxic concentration (MMP13; 10 μM)	inhibition at 3 µM [1, 5]	First toxic concentration at 48 h in rat primary chondrocytes [3]	First toxic concentration at 24 h [3]	other results
CC(=O)N1Cc2cnc(Nc3cc(CCc4cc(NC(=O)c5cccc(C(F)(F)F)c5)ccc4C)n[nH]3)cc2C1 [Compound 34, N-(3-(2-(5-((2-acetyl-2,3-dihydro-1H-pyrrolo[3,4-c]pyridin-6-yl)amino)-1H-pyrazol-3-yl)ethyl)-4-methylphenyl)-3-(trifluoromethyl) benzamide]	8.22	> 8.00	3 μM 99%	3 μM 100%	3 μM 76%	3 μM 97%	3 μM 58%	3 μM 82%									pIC50 (NF-kB): 6.02; Bovine cartilage degradation induced by IL-1α, % inhibitory effect at max concentration ([1]; 1 μM): 96%; Inhibitory effect on the GAG release ([1]; at max concentration): 95-100%; First toxic concentration at 24 h [2]: 10 µM; First toxic concentration at 48 h in rat primary chondrocytes [2]: 3 µM
Cc1ncc(Nc2cc(CCc3cc(NC(=O)c4cccc(C(F)(F)F)c4)ccc3F)n[nH]2)cn1 [Compound 40, N-(4-fluoro-3-(2-(5-((2-methylpyrimidin-5-yl)amino)-1H-pyrazol-3-yl)ethyl)phenyl)-3-(trifluoromethyl)benzamide]	7.00	> 8.00							6.29	10 μM 100%	10 μM 100%	10 μM 100%	10 μM 100%	49%	10 µM	>10 µM	pIC50 (ADAMTS-5; [4]): 5.64; pIC50 (MMP3; Rattus norvegicus, Chondrocyte, 24 h incubation): 6.30
Cc1ccc(NC(=O)c2cccc(S(C)(=O)=O)c2)cc1CCc1cnc(Nc2cnccn2)s1 [Compound 48, N-(4-methyl-3-(2-(2-(pyrazin-2-ylamino)thiazol-5-yl)ethyl)phenyl)-3-(methylsulfonyl)benzamide]	7.57	8.00							6.56						3 µM	3 µM	pIC50 (IL-1β; [4]): 6.22; pIC50 (IL-6; [4]): 6.70; COX2 gene expression, no effect (COX2): ne; ADAMTS-5 gene expression, percentage of inhibitory effect at the highest non toxic concentration (ADAMTS-5; 1 μM): 1 μM 70%; MMP3 gene expression, no effect (MMP3; 24 h): ne; MMP13 gene expression, no effect (MMP13): ne; Bovine cartilage degradation induced by IL-1α, no effect [1]: ne
CCN1Cc2cnc(Nc3cc(CCc4cc(NC(=O)c5cccc(C(F)(F)F)c5)ccc4C)n[nH]3)cc2C1 [Compound 17, N-(3-(2-(5-((2-ethyl-2,3-dihydro-1H-pyrrolo[3,4-c]pyridin-6-yl)amino)-1H-pyrazol-3-yl)ethyl)-4-methylphenyl) -3-(trifluoromethyl)benzamide]	8.10	> 8.00							6.45	10 μM 99%	10 μM 100%	10 μM 96%	10 μM 100%		>10 µM	>10 µM	ADAMTS-5 gene expression, percentage of inhibitory effect at the highest non toxic concentration (ADAMTS-5; 10 μM): 10 μM 62%; MMP3 gene expression, percentage of inhibitory effect at the highest non toxic concentration (MMP3; 10 μM, 24 h): 10 μM 92%; inhibition at 10 µM ([1]; Bos taurus, 10 μM, read-out: Bovine cartilage degradation induced by IL-1α, % inhibitory effect at max concentration): 100%
Cc1cnc(Nc2cc(CCc3cc(NC(=O)c4cccc(C(F)(F)F)c4)ccc3F)n[nH]2)c(C)n1 [Compound 14, N-(3-(2-(5-((3,5-dimethylpyrazin-2-yl)amino)-1H-pyrazol-3-yl)ethyl)-4-fluorophenyl)-3-(trifluoromethyl)benzamide]	7.51	8.00	3 μM 99%	3 μM 100%	3 μM 100%	3 μM 99%	3 μM 95%	3 μM 99%	6.31					97%	10 µM	10 µM	

From patent publication US12509446B2, “FYN and VEGFR2 kinase inhibitors” (ROTTAPHARM BIOTECH S.R.L., priority 2019, dated 2025)
